# Numbers after ± are expanded uncertainties.
# Settings: 298.15 K; 101.33 kPa; Liquid; Pycnometric method
row,SMILES,mass density [kg/m3]
1,CCCCO [butan-1-ol],805.87 ± 0.72
2,CCO [ethanol],785.29 ± 0.71
3,CO [methanol],786.64 ± 0.71
4,CCC(C)(C)OC [2-methoxy-2-methylbutane],765.68 ± 0.69
5,CCC(C)O (stereo not drawn) [butan-2-ol],802.73 ± 0.72

# Second part, the compound after the results:
row,mass density [kg/m3],SMILES
1,781.34 ± 0.7,CC(C)O [propan-2-ol]
2,799.89 ± 0.72,CCCO [propan-1-ol]
3,997.17 ± 0.9,O [water]
